Values quoted from earlier work in patent publication US20090291122A1, “Wound Care Treatment Product” (SANO MEDICAL bvba, priority 2006, published 2009).

System: E-coli

O=[O+][O-] [Ozone]
speed of killing E-coli relative to chlorine: 3125 times faster than chlorine
